According to patent EP1379634B1 (THE UNIVERSITY OF GEORGIA RESEARCH FOUNDATION, INC., priority 2001, dated 2002):
Residues, ends and D or L forms follow the SMILES beside them. *: point of attachment. Cbz = O=C(OCc1ccccc1)*; CH2F = FC*

How the values were obtained:
[1] = tested on: Taenia crassiceps cysts; assay: Short-term protection of BALB/c mice from cysticercosis infection; type: in vivo; settings: repeat study, BALB/c mice
[2] = tested on: BALB/c mice; assay: Observation of side effects in treated mice; type: in vivo
[3] = tested on: normal BALB/c mouse splenocytes; assay: Splenocyte proliferation (3H-thymidine incorporation) with or without Con-A; type: cell-based
[4] = target: T1, Cathepsin H (Homo sapiens, UniProt P09668); assay: Selectivity test (Steps VI and IX), Cathepsin H; type: biochemical; settings: vehicle 4 X 10^-5 M; pH 6.8, substrate L-R-AFC; 40 µM
T1 sequence (P09668 98-335): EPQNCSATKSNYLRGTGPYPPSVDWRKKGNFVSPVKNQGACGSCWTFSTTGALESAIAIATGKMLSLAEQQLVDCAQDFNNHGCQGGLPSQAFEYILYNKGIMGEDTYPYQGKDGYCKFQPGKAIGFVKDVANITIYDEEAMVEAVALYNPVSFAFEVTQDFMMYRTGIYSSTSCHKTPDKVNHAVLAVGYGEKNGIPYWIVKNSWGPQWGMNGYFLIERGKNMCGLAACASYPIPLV
Description: (§1) In order to perform the assay, the vehicle (for Step VI) or inhibitor (for Step IX) were incubated with the appropriate substrate in the correct assay buffer and allowed to equilibrate. Subsequently, the protease was added, and the assay was allowed to incubate for an appropriate time. The concentrations used in this experiment were as follows: Vehicle was set up at 4 X 10^-5 M in final assay buffer; Inhibitor was set up at 3 X 10^-10 M in the final assay buffer. Preferably the dosages employed should be the minimal amount of vehicle or inhibitor necessary to induce inhibition. […] Substrates were set up based upon the preferred substrate for cleavage of the particular enzyme.
(§2) Positive controls were set up similarly as described for test controls, except that a solvent blank was added in substitution for the inhibitor or vehicle (in a volume equal to the volume of inhibitor or vehicle addition). All of the inhibitors and vehicles could be dissolved in dimethylsulfoxide (DMSO), and therefore, this was the solvent of choice. Negative controls were set up by adding the inhibitor or vehicle and the preferred substrates in a tube without the protease. […]
(§3) Percent inhibition was calculated as: %Inhibition = ((AFC positive for "SI"−AFC negative for "SI")−(AFC test−AFC negative for "SI"))/(AFC positive for "SI"−AFC negative for "SI") × 100 [formula] […]

[5] = target: Cathepsin D (Homo sapiens, UniProt P07339); assay: Selectivity test (Steps VI and IX), Cathepsin D; type: biochemical; settings: vehicle 4 X 10^-5 M; pH 7.1, substrate Z-RGFFP-AFC; 40 µM
Cathepsin D, sequence (P07339 65-412): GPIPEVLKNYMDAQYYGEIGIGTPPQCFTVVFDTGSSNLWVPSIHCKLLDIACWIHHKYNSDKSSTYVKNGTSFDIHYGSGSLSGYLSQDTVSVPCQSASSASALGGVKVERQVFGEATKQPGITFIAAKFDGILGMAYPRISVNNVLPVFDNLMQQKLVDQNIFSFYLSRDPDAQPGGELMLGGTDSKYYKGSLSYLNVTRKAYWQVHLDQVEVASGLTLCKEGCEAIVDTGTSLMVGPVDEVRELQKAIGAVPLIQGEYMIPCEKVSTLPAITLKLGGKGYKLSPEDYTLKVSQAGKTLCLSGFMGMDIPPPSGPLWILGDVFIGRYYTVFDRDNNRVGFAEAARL
Description: as §1, §2, §3

## CC(C)C[C@H](NC(=O)OCc1ccccc1)C(=O)N[C@@H](CC(C)C)C(=O)N[C@@H](Cc1ccc(O)cc1)C(=O)CF [Z-LLY-FMK, Z-Leu-Leu-Tyr-FMK] (Cbz-Leu-Leu-Tyr-CH2F)
[1]
  protection from cysticercosis infection, subsequent identical prophylactic experiment: 75%-90%
[2]; long or short-term period
  side effects in treated animals: only negligible side effects
[2]; long-term studies
  side effects in treated mice: no side effects
[2]; mouse, in vivo
  side effects / inhibitor toxicity in treated mice: no mice showed effects of inhibitor toxicity
[3]; inhibitor alone
  proliferative response (3H-thymidine incorporation): do not induce a proliferative response
[3]; preliminary results
  toxicity to splenocytes in vitro: nontoxic

## Mu-Leu-Tyr-AFC [Mu-LY-AFC]
[4]
  % inhibition: 0%
[5]
  % inhibition: 0%
